Assay results taken from US20220117938A1, “COMBINATON THERAPY WITH A DON PRODRUG AND AN IMMUNE CHECKPOINT INHIBITOR” (DRACEN PHARMACEUTICALS, INC., priority 2019, published 2022).

Test system: CT26.WT tumors
Experiment: Anti-tumor efficacy of Compound 1 by IV and SC routes in the CT26.WT model (Example 8)
Type: in vivo, mice
Method: Female BALB/c mice were inoculated subcutaneously in the right flank with CT26.WT cells for tumor development. Six days after tumor inoculation, mice with tumor sizes ranging from 32-77 mm^3 (average tumor size 56 mm^3) were selected and assigned into 6 groups using stratified randomization with 8 mice per group based upon their tumor volumes. The treatments were started from the day of randomization (defined as D0), Group 1 was treated with Vehicle control, q.d.×5 days on (Mon-Fri)×4 cycles s.c.; Group 2 was treated with Compound 1, 0.7 mpk×5 days on (Mon-Fri)×4 cycles s.c.; Group 3 was treated with Compound 1, 1.4 mpk×5 days on (Mon-Fri)×4 cycles s.c.; Group 4 was treated with Compound 1, 4.5 mpk×3-days on (Mon, Wed, Fri)×4 cycles, iv; Group 5 was treated with Compound 1, 7 mpk×2-days on (Mon,Thu)×4 cycles, iv; Group 6 was treated with Compound 1, 14 mpk×1-day on (Mon)×4 cycles, iv. The tumor sizes were measured three times per week during the treatment. The entire study was terminated on D44 after start of the treatment. All treatments were well-tolerated without any adverse effects or significant body weight loss.

[1] = Group 2, 0.7 mpk s.c. Mon-Fri x4 cycles
[2] = Group 2, 0.7 mpk s.c. Mon-Fri x4 cycles, day 16
[3] = Group 3, 1.4 mpk s.c. Mon-Fri x4 cycles
[4] = Group 3, 1.4 mpk s.c. Mon-Fri x4 cycles, day 16
[5] = Group 4, 4.5 mpk iv Mon,Wed,Fri x4 cycles
[6] = Group 4, 4.5 mpk iv Mon,Wed,Fri x4 cycles, day 16
[7] = Group 5, 7 mpk iv Mon,Thu x4 cycles
[8] = Group 5, 7 mpk iv Mon,Thu x4 cycles, day 16
[9] = Group 6, 14 mpk iv Mon x4 cycles
[10] = Group 6, 14 mpk iv Mon x4 cycles, day 16

CC(=O)N[C@@H](Cc1c[nH]c2ccccc12)C(=O)N[C@@H](CCC(=O)C=[N+]=[N-])C(=O)OC(C)C [Compound 1, Isopropyl (S)-2-((S)-2-acetamido-3-(1H-indol-3-yl)propanamido)-6-diazo-5-oxohexanoate]
ILS [1]: 86.1% | MST [1]: 33.5 days | RTV at day 16 [1]: 4.45 ± 0.74 | Tumor volume (Group 2, 0.7 mpk s.c. Mon-Fri x4 cycles, day 0): 56 ± 4 mm^3 | Tumor volume (Group 2, 0.7 mpk s.c. Mon-Fri x4 cycles, day 2): 62 ± 7 mm^3 | Tumor volume (Group 2, 0.7 mpk s.c. Mon-Fri x4 cycles, day 4): 89 ± 10 mm^3 | Tumor volume (Group 2, 0.7 mpk s.c. Mon-Fri x4 cycles, day 7): 124 ± 20 mm^3 | Tumor volume (Group 2, 0.7 mpk s.c. Mon-Fri x4 cycles, day 9): 140 ± 22 mm^3 | Tumor volume (Group 2, 0.7 mpk s.c. Mon-Fri x4 cycles, day 11): 143 ± 21 mm^3 | Tumor volume (Group 2, 0.7 mpk s.c. Mon-Fri x4 cycles, day 14): 261 ± 45 mm^3 | T/C [2]: 14.25% | TGI [2]: 87.81% | Tumor volume [2]: 259 ± 52 mm^3 | Tumor volume (Group 2, 0.7 mpk s.c. Mon-Fri x4 cycles, day 18): 308 ± 63 mm^3 | Tumor volume (Group 2, 0.7 mpk s.c. Mon-Fri x4 cycles, day 21): 407 ± 83 mm^3 | Tumor volume (Group 2, 0.7 mpk s.c. Mon-Fri x4 cycles, day 23): 522 ± 102 mm^3 | Tumor volume (Group 2, 0.7 mpk s.c. Mon-Fri x4 cycles, day 25): 648 ± 130 mm^3 | Tumor volume (Group 2, 0.7 mpk s.c. Mon-Fri x4 cycles, day 28): 1030 ± 194 mm^3 | Tumor volume (Group 2, 0.7 mpk s.c. Mon-Fri x4 cycles, day 30): 1585 ± 288 mm^3 | ILS [3]: 86.1% | MST [3]: 33.5 days | RTV at day 16 [3]: 4.94 ± 0.82 | Tumor volume (Group 3, 1.4 mpk s.c. Mon-Fri x4 cycles, day 0): 56 ± 5 mm^3 | Tumor volume (Group 3, 1.4 mpk s.c. Mon-Fri x4 cycles, day 2): 55 ± 7 mm^3 | Tumor volume (Group 3, 1.4 mpk s.c. Mon-Fri x4 cycles, day 4): 70 ± 8 mm^3 | Tumor volume (Group 3, 1.4 mpk s.c. Mon-Fri x4 cycles, day 7): 107 ± 19 mm^3 | Tumor volume (Group 3, 1.4 mpk s.c. Mon-Fri x4 cycles, day 9): 118 ± 21 mm^3 | Tumor volume (Group 3, 1.4 mpk s.c. Mon-Fri x4 cycles, day 11): 150 ± 26 mm^3 | Tumor volume (Group 3, 1.4 mpk s.c. Mon-Fri x4 cycles, day 14): 235 ± 35 mm^3 | T/C [4]: 15.82% | TGI [4]: 86.45% | Tumor volume [4]: 282 ± 52 mm^3 | Tumor volume (Group 3, 1.4 mpk s.c. Mon-Fri x4 cycles, day 18): 292 ± 49 mm^3 | Tumor volume (Group 3, 1.4 mpk s.c. Mon-Fri x4 cycles, day 21): 406 ± 85 mm^3 | Tumor volume (Group 3, 1.4 mpk s.c. Mon-Fri x4 cycles, day 23): 484 ± 103 mm^3 | Tumor volume (Group 3, 1.4 mpk s.c. Mon-Fri x4 cycles, day 25): 539 ± 119 mm^3 | Tumor volume (Group 3, 1.4 mpk s.c. Mon-Fri x4 cycles, day 28): 853 ± 163 mm^3 | Tumor volume (Group 3, 1.4 mpk s.c. Mon-Fri x4 cycles, day 30): 1372 ± 230 mm^3 | ILS [5]: 61.1% | MST [5]: 29 days | RTV at day 16 [5]: 8.92 ± 1.58 | Tumor volume (Group 4, 4.5 mpk iv Mon,Wed,Fri x4 cycles, day 0): 56 ± 3 mm^3 | Tumor volume (Group 4, 4.5 mpk iv Mon,Wed,Fri x4 cycles, day 2): 70 ± 6 mm^3 | Tumor volume (Group 4, 4.5 mpk iv Mon,Wed,Fri x4 cycles, day 4): 92 ± 11 mm^3 | Tumor volume (Group 4, 4.5 mpk iv Mon,Wed,Fri x4 cycles, day 7): 126 ± 16 mm^3 | Tumor volume (Group 4, 4.5 mpk iv Mon,Wed,Fri x4 cycles, day 9): 168 ± 24 mm^3 | Tumor volume (Group 4, 4.5 mpk iv Mon,Wed,Fri x4 cycles, day 11): 223 ± 40 mm^3 | Tumor volume (Group 4, 4.5 mpk iv Mon,Wed,Fri x4 cycles, day 14): 427 ± 73 mm^3 | T/C [6]: 28.57% | TGI [6]: 73.09% | Tumor volume [6]: 503 ± 94 mm^3 | Tumor volume (Group 4, 4.5 mpk iv Mon,Wed,Fri x4 cycles, day 18): 648 ± 148 mm^3 | Tumor volume (Group 4, 4.5 mpk iv Mon,Wed,Fri x4 cycles, day 21): 948 ± 230 mm^3 | ILS [7]: 61.1% | MST [7]: 29 days | RTV at day 16 [7]: 7.58 ± 1.97 | Tumor volume (Group 5, 7 mpk iv Mon,Thu x4 cycles, day 0): 56 ± 4 mm^3 | Tumor volume (Group 5, 7 mpk iv Mon,Thu x4 cycles, day 2): 71 ± 9 mm^3 | Tumor volume (Group 5, 7 mpk iv Mon,Thu x4 cycles, day 4): 78 ± 11 mm^3 | Tumor volume (Group 5, 7 mpk iv Mon,Thu x4 cycles, day 7): 142 ± 26 mm^3 | Tumor volume (Group 5, 7 mpk iv Mon,Thu x4 cycles, day 9): 166 ± 37 mm^3 | Tumor volume (Group 5, 7 mpk iv Mon,Thu x4 cycles, day 11): 185 ± 45 mm^3 | Tumor volume (Group 5, 7 mpk iv Mon,Thu x4 cycles, day 14): 395 ± 114 mm^3 | T/C [8]: 24.28% | TGI [8]: 76.00% | Tumor volume [8]: 455 ± 131 mm^3 | Tumor volume (Group 5, 7 mpk iv Mon,Thu x4 cycles, day 18): 518 ± 135 mm^3 | Tumor volume (Group 5, 7 mpk iv Mon,Thu x4 cycles, day 21): 878 ± 272 mm^3 | ILS [9]: 47.2% | MST [9]: 26.5 days | RTV at day 16 [9]: 7.02 ± 0.87 | Tumor volume (Group 6, 14 mpk iv Mon x4 cycles, day 0): 56 ± 5 mm^3 | Tumor volume (Group 6, 14 mpk iv Mon x4 cycles, day 2): 69 ± 7 mm^3 | Tumor volume (Group 6, 14 mpk iv Mon x4 cycles, day 4): 78 ± 5 mm^3 | Tumor volume (Group 6, 14 mpk iv Mon x4 cycles, day 7): 163 ± 24 mm^3 | Tumor volume (Group 6, 14 mpk iv Mon x4 cycles, day 9): 160 ± 22 mm^3 | Tumor volume (Group 6, 14 mpk iv Mon x4 cycles, day 11): 204 ± 29 mm^3 | Tumor volume (Group 6, 14 mpk iv Mon x4 cycles, day 14): 425 ± 72 mm^3 | T/C [10]: 22.49% | TGI [10]: 78.92% | Tumor volume [10]: 406 ± 74 mm^3 | Tumor volume (Group 6, 14 mpk iv Mon x4 cycles, day 18): 578 ± 89 mm^3 | Tumor volume (Group 6, 14 mpk iv Mon x4 cycles, day 21): 1035 ± 150 mm^3 | Tumor volume (Group 6, 14 mpk iv Mon x4 cycles, day 23): 1216 ± 177 mm^3 | Tumor volume (Group 6, 14 mpk iv Mon x4 cycles, day 25): 1684 ± 231 mm^3
